Results from patent US8067408B2, “Dual pharmacophores—PDE4-muscarinic antagonistics” (priority 2008, dated 2011).

Row | Structure (SMILES) | melting point [°C]
1 | CCc1nc2c(cnn2CC)c(NC2CCOCC2)c1CNC(=O)c1cccc(C(=O)NCc2ccc(OC)c(-c3cccc(CN4C[C@@H](C)N[C@@H](C)C4)c3)c2)c1 [Example 210, N-{[1,6-Diethyl-4-(tetrahydro-2H-pyran-4-ylamino)-1H-pyrazolo[3,4-b]pyridin-5-yl]methyl}-N′-{[3′-{[(3R,5S)-3,5-dimethyl-1-piperazinyl]methyl}-6-(methyloxy)-3-biphenylyl]methyl}-1,3-benzenedicarboxamide] | 127 to 129
2 | CCc1nc2c(cnn2CC)c(NC2CCOCC2)c1CNC(=O)c1cccc(C(=O)NCc2ccc(C)c(-c3cccc(CN4C[C@@H](C)N[C@@H](C)C4)c3)c2)c1 [Example 211, N-{[1,6-Diethyl-4-(tetrahydro-2H-pyran-4-ylamino)-1H-pyrazolo[3,4-b]pyridin-5-yl]methyl}-N′-[(3′-{[(3R,5S)-3,5-dimethyl-1-piperazinyl]methyl}-6-methyl-3-biphenylyl)methyl]-1,3-benzenedicarboxamide] | 109 to 112
3 | CCc1nc2c(cnn2CC)c(NC2CCOCC2)c1CNC(=O)c1cccc(C(=O)NCc2ccc(C)c(-c3cccc(CN4CCN[C@@H](C)C4)c3)c2)c1 [Example 212, N-{[1,6-Diethyl-4-(tetrahydro-2H-pyran-4-ylamino)-1H-pyrazolo[3,4-b]pyridin-5-yl]methyl}-N′-[(6-methyl-3′-{[(3S)-3-methyl-1-piperazinyl]methyl}-3-biphenylyl)methyl]-1,3-benzenedicarboxamide] | 115 to 118
4 | CCc1nc2c(cnn2CC)c(NC2CCOCC2)c1CNC(=O)c1cccc(C(=O)NCc2ccc(OC)c(-c3cccc(CN4CCN[C@@H](C)C4)c3)c2)c1 [Example 213, N-{[1,6-Diethyl-4-(tetrahydro-2H-pyran-4-ylamino)-1H-pyrazolo[3,4-b]pyridin-5-yl]methyl}-N′-[(6-(methyloxy)-3′-{[(3S)-3-methyl-1-piperazinyl]methyl}-3-biphenylyl)methyl]-1,3-benzenedicarboxamide] | 110 to 112
5 | CCc1nc2c(cnn2CC)c(NC2CCOCC2)c1CNC(=O)c1cccc(C(=O)NCc2ccc(Cl)c(-c3cccc(CN4CCN[C@@H](C)C4)c3)c2)c1 [Example 214, N-[(6-Chloro-3′-{[(3S)-3-methyl-1-piperazinyl]methyl}-3-biphenylyl)methyl]-N′-{[1,6-diethyl-4-(tetrahydro-2H-pyran-4-ylamino)-1H-pyrazolo[3,4-b]pyridin-5-yl]methyl}-1,3-benzenedicarboxamide] | 117 to 120
6 | CCc1nc2c(cnn2CC)c(NC2CCOCC2)c1CNC(=O)c1cccc(C(=O)NCc2ccc(Cl)c(-c3cccc(CN4CCN[C@@H](C)C4)c3)c2)c1 [Example 215, N-[(6-Chloro-3′-{[(3S)-3-methyl-1-piperazinyl]methyl}-3-biphenylyl)methyl]-N′-{[1,6-diethyl-4-(tetrahydro-2H-pyran-4-ylamino)-1H-pyrazolo[3,4-b]pyridin-5-yl]methyl}-1,3-benzenedicarboxamide] | 116 to 118
7 | CCc1nc2c(cnn2CC)c(NC2CCOCC2)c1CNC(=O)c1cccc(C(=O)NCc2ccc(C)c(-c3cccc(CN4CCCN(C)CC4)c3)c2)c1 [Example 216, N-{[1,6-Diethyl-4-(tetrahydro-2H-pyran-4-ylamino)-1H-pyrazolo[3,4-b]pyridin-5-yl]methyl}-N′-({6-methyl-3′-[(4-methylhexahydro-1H-1,4-diazepin-1-yl)methyl]-3-biphenylyl}methyl)-1,3-benzenedicarboxamide] | 107 to 109
8 | CCc1nc2c(cnn2CC)c(NC2CCOCC2)c1CNC(=O)c1cccc(C(=O)NCc2ccc(OC)c(-c3cccc(CN4CCCN(C)CC4)c3)c2)c1 [Example 217, N-{[1,6-Diethyl-4-(tetrahydro-2H-pyran-4-ylamino)-1H-pyrazolo[3,4-b]pyridin-5-yl]methyl}-N′-{[3′-[(4-methylhexahydro-1H-1,4-diazepin-1-yl)methyl]-6-(methyloxy)-3-biphenylyl]methyl}-1,3-benzenedicarboxamide] | 116 to 119
9 | CCc1nc2c(cnn2CC)c(NC2CCOCC2)c1CNC(=O)c1cccc(C(=O)NCc2ccc(Cl)c(-c3cccc(CN4CCCN(C)CC4)c3)c2)c1 [Example 218, N-({6-Chloro-3′-[(4-methylhexahydro-1H-1,4-diazepin-1-yl)methyl]-3-biphenylyl}methyl)-N′-{[1,6-diethyl-4-(tetrahydro-2H-pyran-4-ylamino)-1H-pyrazolo[3,4-b]pyridin-5-yl]methyl}-1,3-benzenedicarboxamide] | 105 to 107
10 | CCc1nc2c(cnn2CC)c(NC2CCOCC2)c1CNC(=O)c1cccc(C(=O)NCc2ccc(Cl)c(-c3cccc(CN4CCN(C)CC4)c3)c2)c1 [Example 219, N-({6-Chloro-3′-[(4-methyl-1-piperazinyl)methyl]-3-biphenylyl}methyl)-N′-{[1,6-diethyl-4-(tetrahydro-2H-pyran-4-ylamino)-1H-pyrazolo[3,4-b]pyridin-5-yl]methyl}-1,3-benzenedicarboxamide] | 112 to 114
11 | CCc1nc2c(cnn2CC)c(NC2CCOCC2)c1CNC(=O)c1cccc(C(=O)NCc2ccc(Cl)c(-c3cccc(CN4C[C@@H](C)N[C@@H](C)C4)c3)c2)c1 [Example 220, N-[(6-Chloro-3′-{[(3R,5S)-3,5-dimethyl-1-piperazinyl]methyl}-3-biphenylyl)methyl]-N′-{[1,6-diethyl-4-(tetrahydro-2H-pyran-4-ylamino)-1H-pyrazolo[3,4-b]pyridin-5-yl]methyl}-1,3-benzenedicarboxamide] | 121 to 124
12 | CCc1nc2c(cnn2CC)c(NC2CCOCC2)c1CNC(=O)c1cccc(C(=O)NCc2ccc(Cl)c(-c3cccc(CN4CCCNCC4)c3)c2)c1 [Example 221, N-{[6-Chloro-3′-(hexahydro-1H-1,4-diazepin-1-ylmethyl)-3-biphenylyl]methyl}-N′-{[1,6-diethyl-4-(tetrahydro-2H-pyran-4-ylamino)-1H-pyrazolo[3,4-b]pyridin-5-yl]methyl}-1,3-benzenedicarboxamide] | 116 to 119
13 | CCc1nc2c(cnn2CC)c(NC2CCOCC2)c1CNC(=O)c1cccc(C(=O)NCc2ccc(Cl)c(-c3cccc(CN4CCNCC4)c3)c2)c1 [Example 222, N-{[6-Chloro-3′-(1-piperazinylmethyl)-3-biphenylyl]methyl}-N′-{[1,6-diethyl-4-(tetrahydro-2H-pyran-4-ylamino)-1H-pyrazolo[3,4-b]pyridin-5-yl]methyl}-1,3-benzenedicarboxamide] | 127 to 130
14 | CCc1nc2c(cnn2CC)c(NC2CCOCC2)c1CNC(=O)c1cccc(C(=O)NCc2ccc(Cl)c(-c3cccc(CN4C[C@@H]5C[C@H]4CN5)c3)c2)c1 [Example 223, N-({6-Chloro-3′-[(1S,4S)-2,5-diazabicyclo [2.2.1]hept-2-ylmethyl]-3-biphenylyl}methyl)-N′-{[1,6-diethyl-4-(tetrahydro-2H-pyran-4-ylamino)-1H-pyrazolo[3,4-b]pyridin-5-yl]methyl}-1,3-benzenedicarboxamide] | 145 to 149
15 | CCc1nc2c(cnn2CC)c(NC2CCOCC2)c1CNC(=O)c1cccc(C(=O)NCc2cc(Cl)cc(-c3cccc(CN4CCN[C@@H](C)C4)c3)c2)c1 [Example 224, N-[(5-Chloro-3′-{[(3S)-3-methyl-1-piperazinyl]methyl}-3-biphenylyl)methyl]-N′-{[1,6-diethyl-4-(tetrahydro-2H-pyran-4-ylamino)-1H-pyrazolo[3,4-b]pyridin-5-yl]methyl}-1,3-benzenedicarboxamide] | 119 to 121
16 | CCc1nc2c(cnn2CC)c(NC2CCOCC2)c1CNC(=O)c1cccc(C(=O)NCc2cc(Cl)cc(-c3cccc(CN4CCN(C)CC4)c3)c2)c1 [Example 422, N-({5-Chloro-3′-[(4-methyl-1-piperazinyl)methyl]-3-biphenylyl}methyl)-N′-{[1,6-diethyl-4-(tetrahydro-2H-pyran-4-ylamino)-1H-pyrazolo[3,4-b]pyridin-5-yl]methyl}-1,3-benzenedicarboxamide] | 116 to 118
17 | CCc1nc2c(cnn2CC)c(NC2CCOCC2)c1CNC(=O)c1cc(C)cc(C(=O)NCc2ccc(OC)c(-c3cccc(CN4CCN[C@@H](C)C4)c3)c2)c1 [Example 423, N-{[1,6-Diethyl-4-(tetrahydro-2H-pyran-4-ylamino)-1H-pyrazolo[3,4-b]pyridin-5-yl]methyl}-5-methyl-N′-[(6-(methyloxy)-3′-{[(3S)-3-methyl-1-piperazinyl]methyl}-3-biphenylyl)methyl]-1,3-benzenedicarboxamide] | 121 to 123
18 | CCc1nc2c(cnn2CC)c(NC2CCOCC2)c1CNC(=O)c1cccc(C(=O)NCc2cc(Cl)cc(-c3cccc(CN4CCNCC4)c3)c2)c1 [Example 424, N-{[5-Chloro-3′-(1-piperazinylmethyl)-3-biphenylyl]methyl}-N′-{[1,6-diethyl-4-(tetrahydro-2H-pyran-4-ylamino)-1H-pyrazolo[3,4-b]pyridin-5-yl]methyl}-1,3-benzenedicarboxamide] | 119 to 122
19 | CCc1nc2c(cnn2CC)c(NC2CCOCC2)c1CNC(=O)c1cc(C)cc(C(=O)NCc2cccc(-c3cccc(CC4CCN(C)CC4)c3)c2)c1 [Example 425, N-{[1,6-Diethyl-4-(tetrahydro-2H-pyran-4-ylamino)-1H-pyrazolo[3,4-b]pyridin-5-yl]methyl}-5-methyl-N′-({3′-[(1-methyl-4-piperidinyl)methyl]-3-biphenylyl}methyl)-1,3-benzenedicarboxamide] | 119 to 121
20 | CCc1nc2c(cnn2CC)c(NC2CCOCC2)c1CNC(=O)c1cc(C)cc(C(=O)NCc2cccc(-c3cccc(CC4CCNCC4)c3)c2)c1 [Example 426, N-{[1,6-Diethyl-4-(tetrahydro-2H-pyran-4-ylamino)-1H-pyrazolo[3,4-b]pyridin-5-yl]methyl}-5-methyl-N′-{[3′-(4-piperidinylmethyl)-3-biphenylyl]methyl}-1,3-benzenedicarboxamide] | 130 to 132
21 | CCc1nc2c(cnn2CC)c(NC2CCOCC2)c1CNC(=O)c1cc(C)cc(C(=O)NCc2ccc(OC)c(-c3cccc(CC4CCN(C)CC4)c3)c2)c1 [Example 427, N-{[1,6-Diethyl-4-(tetrahydro-2H-pyran-4-ylamino)-1H-pyrazolo[3,4-b]pyridin-5-yl]methyl}-5-methyl-N′-({6-(methyloxy)-3′-[(1-methyl-4-piperidinyl)methyl]-3-biphenylyl}methyl)-1,3-benzenedicarboxamide] | 115 to 117
